The values that follow come from patent publication US20140127287A1, “LIPOSOME-ENCAPSULATED HYDROGELS FOR USE IN A DRUG DELIVERY SYSTEM” (Wisconsin Alumni Research Foundation (WARF), priority 2011, published 2014).

Structures are written as SMILES.

Data set [1] relates to human prostate PC-3 cancer cells. In words: Resazurin-based metabolic cytotoxicity assay, PC-3. Format: cell-based. Conditions: 24 hours exposure, then 24 hours in DMEM; 17-DMAPG equivalents. How it is done:
(§1) For cell culture, cells were maintained at 37° C., 5% CO2 and 95% humidity in Dulbecco's modified Eagle's medium (DMEM) supplemented with 10% (v/v) heat inactivated fetal bovine serum (FBS), 2 mM L-glutamine and 100 unit/mL penicillin and 1000 μg/mL streptomycin. Cytotoxicity of 17-DMAPG loaded lipogels was assessed in human prostate PC-3 cancer cells and breast carcinoma MDA-MB-231 cells by resazurin-based metabolic assay. Briefly, cells were seeded in 96-well plates with 5,000 cells per well and allowed to adhere for 24 hours prior to the assay. Cells were exposed to various doses (0-35 μM on 17-DMAPG basis) of free 17-DMAPG, lipogel loaded 17-DMAPG and lipogel alone for 24 hours at 37° C., followed by washing with PBS, and maintaining in DMEM medium with 10% FBS for additional 24 hours. 10 μl of resazurin PBS solution (440 μM) was added into each well and incubated for a further 2 hours. The fluorescence was measured with a microplate reader (SpectraMax Gemini XS, Molecular Devices) with excitation at 560 nm and emission at 590 nm using wells without cells as blanks. […] The reading taken from the wells with cells cultured with control medium was used as 100% viability. The cell viability was calculated as Esample/Econtrol×100%. Based on the results of the test, the IC50 values were calculated on GraphPad Prism 5 Software (San Diego Calif., USA).

Data set [2] deals with breast carcinoma MDA-MB-231 cells. In words: Resazurin-based metabolic cytotoxicity assay, MDA-MB-231. Format: cell-based, human. Conditions: 24 hours exposure, then 24 hours in DMEM; 17-DMAPG equivalents. How it is done: as §1
(In general: Alamar Blue is a resazurin reagent that responds to reducing activity.)

The nature of a further data set: pKa of active agents. It is filed as physicochemical. The settings on record: pH 6.5.
A short description of data set [3]: Heat stability of 17-DMAPG during incubation, HPLC analysis. Format: physicochemical. Conditions: extended incubation at 65° C.

What is called IC50 is the concentration at which inhibition is half-maximal. For the molecule `CO[C@H]1/C=C\C=C(/C)C(=O)NC2=CC(=O)C(NCCCN(C)C)=C(C[C@@H](C)C[C@H](OC)[C@H](O)[C@@H](C)/C=C(\C)[C@@H]1OC(N)=O)C2=O` [17-DMAPG, 17-(dimethylaminopropylamino)-17-demethoxygeldanamycin], the IC50 in data set [1] was determined as 807 nM; in data set [2] it was 152 nM. Moreover, the “fraction protonated and positively charged” value in “pKa of active agents” was “approximately 99%”. Further, the “heat stability (in words)” value in data set [3] was “heat instability”.
